From patent US20020102893A1, “ANTI-TACK SPANDEX FIBERS CONTAINING ANTIMICROBIAL AGENTS THEREIN AND FABRICS MADE THEREFROM” (priority 2000, published 2002)

What was measured:
[1] = Discoloration (photoreduction) of spandex yarns after exposure to indoor fluorescent light; assay type: physicochemical; conditions: after 1 month under typical indoor (fluorescent) light; antimicrobial within spandex yarn
Protocol: The Example spandex yarns were also tested for discoloration (photoreduction) after exposure to typical indoor (fluorescent) light after 1 month of such storage. […] Thus, for this purpose AlphaSan®-type antimicrobials are most preferred. […] Thus, for anti-tack, discoloration, and resiliency within and on the target spandex yarns, the AlphaSan® antimicrobials are, again, most preferred. The discoloration results are as follows, again with a non-antimicrobial control for comparison: […]

[2] = no test described; cited from earlier work

In the case of `Oc1cc(Cl)ccc1Oc1ccc(Cl)cc1Cl` [triclosan], the “discoloration (photoreduction) performance, in words” value [1] is given as “excellent colorations” and the water solubility [2] is given as “highly water soluble”.
